Assay [1] deals with T1, His tagged PTPN2 (TC45) protein (Homo sapiens, UniProt P17706).
T1 construct: made in house
T1 sequence (P17706 with tags, fused parts or gaps isoform P17706-2): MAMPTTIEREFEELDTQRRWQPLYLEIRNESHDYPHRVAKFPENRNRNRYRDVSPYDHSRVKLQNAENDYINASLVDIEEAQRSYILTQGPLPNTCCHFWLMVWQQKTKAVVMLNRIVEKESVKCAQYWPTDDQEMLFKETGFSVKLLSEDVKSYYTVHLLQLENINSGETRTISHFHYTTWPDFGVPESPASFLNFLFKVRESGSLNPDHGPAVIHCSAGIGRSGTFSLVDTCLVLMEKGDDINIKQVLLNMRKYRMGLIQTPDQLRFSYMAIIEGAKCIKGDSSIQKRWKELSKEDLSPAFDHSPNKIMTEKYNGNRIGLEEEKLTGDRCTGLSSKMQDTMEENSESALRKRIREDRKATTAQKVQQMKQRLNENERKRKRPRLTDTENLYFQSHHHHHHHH
The assay is described as follows: Mobility shift assay used to determine potency of PTPN2 inhibitors. The format is biochemical. As to conditions: enzyme 0.5 nM, substrate 2 μM; read-out: PTPN2 MSA IC50. The protocol: Example 227: Mobility Shift Assay Used to Determine Potency of PTPN2 Inhibitors
Compound activity was determined using in house His tagged PTPN2 (TC45) protein (SEQ ID NO: 1) in an in vitro enzymatic reaction. The enzymatic assay used to determine activity was a mobility shift assay using a LabChip EZ Reader by Caliper Life Sciences. The enzymatic reaction was carried out in assay buffer (50 mM HEPES pH 7.5, 1 mM EGTA, 10 mM EDTA, 0.01% Tween® 20, and 2 mM DTT). The compounds were dispensed on a white 384 well ProxiPlate™ (PerkinElmer Catalog #6008289) plate using the Labcyte Echo at varying concentrations (12 point, 1:3 dilution). The enzyme (at 0.5 nM) was incubated with compound for 10 minutes at room temperature. Then the substrate (phosphorylated insulin receptor probe sequence: ((OG488)-(NH—CH2—CH2—O—CH2—CH2—O—CH2—CO)-T-R-D-I-(PY)-E-T-D-Y-Y-R-K-K-NH2) (SEQ ID NO: 2) was added at 2 μM to the plates and incubated for another 10 minutes at room temperature. Finally, a quench solution (water and 4-bromo-3-(2-oxo-2-propoxyethoxy)-5-(3-{[1-(phenylmethanesulfonyl)piperidin-4-yl]amino}phenyl)thiophene-2-carboxylic acid) was added to the plates, which were then run on the EZ Reader (excitation 488 nm, emission 530 nm) to measure % conversion (the amount of phosphorylated substrate which was de-phosphorylated by PTPN2). […] The % inhibition was then used to calculate the IC50 values.

The target in assay [2] is T2, His tagged full-length PTPN1 protein (Homo sapiens, UniProt P18031).
T2 construct: made in house
T2 sequence (P18031 with tags, fused parts or gaps): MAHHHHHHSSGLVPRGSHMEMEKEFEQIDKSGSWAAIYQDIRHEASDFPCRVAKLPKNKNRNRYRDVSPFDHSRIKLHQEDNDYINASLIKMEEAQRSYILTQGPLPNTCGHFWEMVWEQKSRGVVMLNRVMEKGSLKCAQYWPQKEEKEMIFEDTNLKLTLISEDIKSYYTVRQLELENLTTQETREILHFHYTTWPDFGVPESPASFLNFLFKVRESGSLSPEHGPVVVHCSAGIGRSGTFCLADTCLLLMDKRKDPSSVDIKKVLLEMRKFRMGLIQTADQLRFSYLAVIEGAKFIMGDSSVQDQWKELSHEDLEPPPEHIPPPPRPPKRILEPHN
Kind of assay: Mobility shift assay (MSA) used to determine potency of PTPN1 inhibitors. The format is biochemical. The following applies: enzyme 0.5 nM, substrate 2 μM. As to the method:
Example 228: Mobility Shift Assay (MSA) Used to Determine Potency of PTPN1 Inhibitors
Compound activity was determined using in house His tagged full-length PTPN1 protein (SEQ ID NO: 3) in an in vitro enzymatic reaction. The enzymatic assay used to determine activity is a mobility shift assay using a LabChip EZ Reader by Caliper Life Sciences. The enzymatic reaction was carried out in assay buffer (50 mM HEPES pH 7.5, 1 mM EGTA, 10 mM EDTA, 0.01% Tween® 20, and 2 mM DTT). The compounds were dispensed on a white 384 well ProxiPlate™ (PerkinElmer Cat^# 6008289) plate using a Labcyte Echo® liquid handler at varying concentrations (12 point, 1:3 dilution). The enzyme (at 0.5 nM) was incubated with compound for 10 minutes at room temperature. Then the substrate (phosphorylated insulin receptor probe sequence: ((OG488)-(NH—CH2—CH2—O—CH2—CH2—O—CH2—CO)-T-R-D-I-(PY)-E-T-D-Y-Y-R-K-K-NH2) (SEQ ID NO: 2) was added at 2 μM to the plates and incubated for another 10 minutes at room temperature. Finally, a quench solution (water and 4-bromo-3-(2-oxo-2-propoxyethoxy)-5-(3-{[1-(phenylmethanesulfonyl)piperidin-4-yl]amino}phenyl)thiophene-2-carboxylic acid) was added to the plates, which were then run on the EZ Reader (excitation 488 nm, emission 530 nm) to measure % conversion (the amount of phosphorylated substrate which was de-phosphorylated by PTPN1). […] The % inhibition was then used to calculate the IC50 values.

Bounds are passed on as bounds.

A word on the IC50: it is the concentration that gives 50% inhibition.

As to `O=C1CN(c2c(O)cc3c(c2F)CN(CC(O)C2CCCCC2)CC3)S(=O)(=O)N1` (stereo not drawn) [Compound 215, 5-[2-(2-cyclohexyl-2-hydroxyethyl)-8-fluoro-6-hydroxy-1,2,3,4-tetrahydroisoquinolin-7-yl]-1λ^6,2,5-thiadiazolidine-1,1,3-trione], the IC50 in assay [1] and in assay [2] was over 100 nM each time.
Take `CC(C)OCCNC1CCc2cc(O)c(N3CC(=O)NS3(=O)=O)c(F)c2C1` (stereo not drawn) [Compound 186, 5-[1-fluoro-3-hydroxy-7-({2-[(propan-2-yl)oxy]ethyl}amino)-5,6,7,8-tetrahydronaphthalen-2-yl]-1λ^6,2,5-thiadiazolidine-1,1,3-trione]: the IC50 in assay [1] and in assay [2] was 10 to 100 nM in each case.
Consider `O=C1CN(c2c(O)cc3c(c2F)C[C@@H]([C@H]2CCNC2)CC3)S(=O)(=O)N1` (single isomer, unassigned) [Compound 138, 5-{(7RS)-1-fluoro-3-hydroxy-7-[(3SR)-pyrrolidin-3-yl]-5,6,7,8-tetrahydronaphthalen-2-yl}-1λ^6,2,5-thiadiazolidine-1,1,3-trione], for which the IC50 in assay [1] and in assay [2] was 10 to 100 nM in each case.
On to `O=C1CN(c2c(O)cc3c(c2F)CN(CCC24CCC(CC2)C4)CC3)S(=O)(=O)N1` [Compound 239, 5-{2-[2-(bicyclo[2.2.1]heptan-1-yl)ethyl]-8-fluoro-6-hydroxy-1,2,3,4-tetrahydroisoquinolin-7-yl}-1λ^6,2,5-thiadiazolidine-1,1,3-trione], for which the IC50 in assay [1] and in assay [2] was 1 to 10 nM throughout.
Turning to `O=C1CN(c2c(O)cc3c(c2F)CCC(OCCCC(F)F)C3)S(=O)(=O)N1` (stereo not drawn) [Compound 312, 5-[6-(4,4-difluorobutoxy)-1-fluoro-3-hydroxy-5,6,7,8-tetrahydronaphthalen-2-yl]-1λ^6,2,5-thiadiazolidine-1,1,3-trione], the IC50 in assay [1] and in assay [2] was 10 to 100 nM throughout.
As for `NCCOC1CCc2c(cc(O)c(N3CC(=O)NS3(=O)=O)c2F)C1` (stereo not drawn) [Compound 319, 5-[6-(2-aminoethoxy)-1-fluoro-3-hydroxy-5,6,7,8-tetrahydronaphthalen-2-yl]-1λ^6,2,5-thiadiazolidine-1,1,3-trione], the IC50 in assay [1] is 10 to 100 nM; in assay [2] it was over 100 nM.
On the same counts, the results for `Cc1noc(C)c1CCNC1CCc2cc(O)c(N3CC(=O)NS3(=O)=O)c(F)c2C1` (stereo not drawn) [Compound 290, 5-(7-{[2-(3,5-dimethyl-1,2-oxazol-4-yl)ethyl]amino}-1-fluoro-3-hydroxy-5,6,7,8-tetrahydronaphthalen-2-yl)-1λ^6,2,5-thiadiazolidine-1,1,3-trione] are 1 to 10 nM and 1 to 10 nM.
With `CC(C)(C)OC(=O)NCCOC1CCc2c(cc(O)c(N3CC(=O)NS3(=O)=O)c2F)C1` (stereo not drawn) [Compound 316, tert-butyl (2-{[5-fluoro-7-hydroxy-6-(1,1,4-trioxo-1λ^6,2,5-thiadiazolidin-2-yl)-1,2,3,4-tetrahydronaphthalen-2-yl]oxy}ethyl)carbamate], the half-maximal inhibitory concentration (IC50) is 10 to 100 nM in assay [1] and over 100 nM in assay [2].
In the same order, the values of `COC1CCc2c(cc(O)c(N3CC(=O)NS3(=O)=O)c2F)C1` (stereo not drawn) [Compound 317, 5-(1-fluoro-3-hydroxy-6-methoxy-5,6,7,8-tetrahydronaphthalen-2-yl)-1λ^6,2,5-thiadiazolidine-1,1,3-trione] are 10 to 100 nM and over 100 nM.
On the same counts, the results for `O=C1CN(c2c(O)cc3c(c2F)CC(NCCN2CCC2)CC3)S(=O)(=O)N1` (stereo not drawn) [Compound 115, 5-(7-{[2-(azetidin-1-yl)ethyl]amino}-1-fluoro-3-hydroxy-5,6,7,8-tetrahydronaphthalen-2-yl)-1λ^6,2,5-thiadiazolidine-1,1,3-trione] are 10 to 100 nM and 10 to 100 nM.
In the same order, the values of `O=C1CN(c2c(O)cc3c(c2F)CN(C[C@H]2C[C@@H]2c2ccncc2)CC3)S(=O)(=O)N1` (racemic) [Compound 248, 5-(8-fluoro-6-hydroxy-2-{[rac-(1R,2R)-2-(pyridin-4-yl)cyclopropyl]methyl}-1,2,3,4-tetrahydroisoquinolin-7-yl)-1λ^6,2,5-thiadiazolidine-1,1,3-trione] are 10 to 100 nM and 10 to 100 nM.
Turning to `Cc1noc(C)c1CNC1CCc2cc(O)c(N3CC(=O)NS3(=O)=O)c(F)c2C1` (stereo not drawn) [Compound 287, 5-(7-{[(3,5-dimethyl-1,2-oxazol-4-yl)methyl]amino}-1-fluoro-3-hydroxy-5,6,7,8-tetrahydronaphthalen-2-yl)-1λ^6,2,5-thiadiazolidine-1,1,3-trione], the half-inhibitory concentration (IC50) in assay [1] is 10 to 100 nM; in assay [2], over 100 nM.
Take `C=CCC1(N)CCc2cc(O)c(N3CC(=O)NS3(=O)=O)c(F)c2C1` (stereo not drawn) [Compound 240, 5-[7-amino-1-fluoro-3-hydroxy-7-(prop-2-en-1-yl)-5,6,7,8-tetrahydronaphthalen-2-yl]-1λ^6,2,5-thiadiazolidine-1,1,3-trione]: the results for the IC50 in assay [1] and in assay [2] were 10 to 100 nM and over 100 nM, respectively.
In the same order, the values of `CC(C)[C@@H]1CN(C2CCc3cc(O)c(N4CC(=O)NS4(=O)=O)c(F)c3C2)CCO1` (stereo partly drawn) [Compound 182, 5-{1-fluoro-3-hydroxy-7-[(2R)-2-(propan-2-yl)morpholin-4-yl]-5,6,7,8-tetrahydronaphthalen-2-yl}-1λ^6,2,5-thiadiazolidine-1,1,3-trione] are 10 to 100 nM and 10 to 100 nM.
In the same order, the values of `O=C1CN(c2c(O)cc3c(c2F)CC(CNCCC2CCC2)C3)S(=O)(=O)N1` (stereo not drawn) [Compound 305, 5-(2-{[(2-cyclobutylethyl)amino]methyl}-4-fluoro-6-hydroxy-2,3-dihydro-1H-inden-5-yl)-1λ^6,2,5-thiadiazolidine-1,1,3-trione] are 10 to 100 nM and 10 to 100 nM.
On the same counts, the results for `CC(Cc1ccc(C(C)C)cc1)CN1CCc2cc(O)c(N3CC(=O)NS3(=O)=O)c(F)c2C1` (stereo not drawn) [Compound 295, 5-(8-fluoro-6-hydroxy-2-{2-methyl-3-[4-(propan-2-yl)phenyl]propyl}-1,2,3,4-tetrahydroisoquinolin-7-yl)-1λ^6,2,5-thiadiazolidine-1,1,3-trione] are 10 to 100 nM and over 100 nM.
As for `O=C1CN(c2c(O)cc3c(c2F)CC(C2CCN(CC4CC4)C2)CC3)S(=O)(=O)N1` (mixture of isomers) [Compound 140, 5-{7-[1-(cyclopropylmethyl)pyrrolidin-3-yl]-1-fluoro-3-hydroxy-5,6,7,8-tetrahydronaphthalen-2-yl}-1λ^6,2,5-thiadiazolidine-1,1,3-trione], the IC50 in assay [1] and in assay [2] was 10 to 100 nM in each case.
For the compound `CC(O)CCN1CCc2cc(O)c(N3CC(=O)NS3(=O)=O)c(F)c2C1` (stereo not drawn) [Compound 242, 5-[8-fluoro-6-hydroxy-2-(3-hydroxybutyl)-1,2,3,4-tetrahydroisoquinolin-7-yl]-1λ^6,2,5-thiadiazolidine-1,1,3-trione], the half-inhibitory concentration (IC50) in assay [1] and in assay [2] was 10 to 100 nM in each case.

These data come from patent US10851073B2, “Protein tyrosine phosphatase inhibitors and methods of use thereof” (Calico Life Sciences LLC, priority 2019, dated 2020).
